# Results from patent US20250186437A1, “CARBOLINE COMPOUNDS AND USE THEREOF” (PTC Therapeutics, Inc., priority 2021, published 2025).
# Test system: MOLM-13 cells
# Assay: MOLM-13 Cell Proliferation Assay (indicator of DHODH inhibition)
# Format: cell-based
# Settings: Homo sapiens, 72 Hours of culture, CellTiter-Glo, no uridine
# Procedure, shortened: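 Low-passage MOLM-13 cells (10^4/well) in RPMI 1640 + 10% FBS exposed to compound (0.5% DMSO final) for 72 h at 37 °C, 5% CO2. Viability read by CellTiter-Glo luminescence; growth reflects de novo pyrimidine synthesis dependent on DHODH.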
row,SMILES,IC50 [nM]
1,"Cc1nc(N2CCc3c([nH]c4ccc(Cl)cc34)C2c2cnc(N3CCOCC3)nc2)ncc1F (stereo not drawn) [Compound 366, 6-chloro-2-(5-fluoro-4-methylpyrimidin-2-yl)-1-[2-(morpholin-4-yl)pyrimidin-5-yl]-2,3,4,9-tetrahydro-1H-pyrido[3,4-b]indole]",10
2,"CCc1ccnc(N2CCc3c([nH]c4cc(F)c(Cl)cc34)C2c2ccc(F)cc2)n1 (stereo not drawn) [Compound 22, 6-chloro-2-(4-ethylpyrimidin-2-yl)-7-fluoro-1-(4-fluorophenyl)-2,3,4,9-tetrahydro-1H-pyrido[3,4-b]indole]",57.8
3,"Fc1c(Cl)ccc2[nH]c3c(c12)CCN(c1nccc(C(F)(F)F)n1)C3c1cccnc1 (stereo not drawn) [Compound 202, 6-chloro-5-fluoro-1-(pyridin-3-yl)-2-[4-(trifluoromethyl)pyrimidin-2-yl]-2,3,4,9-tetrahydro-1H-pyrido[3,4-b]indole]",16.2
4,"Cc1ccc(C2c3[nH]c4cc(F)c(Cl)cc4c3CCN2c2nccc(Cl)n2)cc1 (stereo not drawn) [Compound 43, 6-chloro-2-(4-chloropyrimidin-2-yl)-7-fluoro-1-(4-methylphenyl)-2,3,4,9-tetrahydro-1H-pyrido[3,4-b]indole]",6
5,"CCCCOc1nc(C)nc(N2CCc3c([nH]c4ccc(Cl)cc34)C2c2cnc(N3CCOCC3)nc2)n1 (stereo not drawn) [Compound 318, 2-(4-butoxy-6-methyl-1,3,5-triazin-2-yl)-6-chloro-1-[2-(morpholin-4-yl)pyrimidin-5-yl]-2,3,4,9-tetrahydro-1H-pyrido[3,4-b]indole]",4.3
6,"CSc1nc(N2CCc3c([nH]c4ccc(F)cc34)C2c2ccc(C)c(F)c2F)nc(C(F)(F)F)n1 (stereo not drawn) [Compound 495, 1-(2,3-difluoro-4-methylphenyl)-6-fluoro-2-[4-(methylsulfanyl)-6-(trifluoromethyl)-1,3,5-triazin-2-yl]-2,3,4,9-tetrahydro-1H-pyrido[3,4-b]indole]",8.8
7,"Cc1nc(N(C)C)nc(N2CCc3c([nH]c4ccc(Cl)cc34)C2c2cnc(N3CCOCC3)nc2)n1 (stereo not drawn) [Compound 290, 4-{6-chloro-1-[2-(morpholin-4-yl)pyrimidin-5-yl]-1,3,4,9-tetrahydro-2H-pyrido[3,4-b]indol-2-yl}-N,N,6-trimethyl-1,3,5-triazin-2-amine]",19.7
8,"FC(F)(F)c1ccnc(N2CCc3c([nH]c4ccc(-n5cccn5)cc34)C2c2cnc(N3CCOCC3)nc2)n1 (stereo not drawn) [Compound 301, 1-[2-(morpholin-4-yl)pyrimidin-5-yl]-6-(1H-pyrazol-1-yl)-2-[4-(trifluoromethyl)pyrimidin-2-yl]-2,3,4,9-tetrahydro-1H-pyrido[3,4-b]indole]",23.9
9,"Cc1nc(C)nc(N2CCc3c([nH]c4ccc(Cl)cc34)C2c2ccc(F)cc2)n1 (stereo not drawn) [Compound 450, 6-chloro-2-(4,6-dimethyl-1,3,5-triazin-2-yl)-1-(4-fluorophenyl)-2,3,4,9-tetrahydro-1H-pyrido[3,4-b]indole]",29.8
10,"Cc1nc(N2CCOCC2)nc(N2CCc3c([nH]c4ccc(Cl)cc34)C2c2cnc(N3CCOCC3)nc2)n1 (stereo not drawn) [Compound 296, 6-chloro-2-[4-methyl-6-(morpholin-4-yl)-1,3,5-triazin-2-yl]-1-[2-(morpholin-4-yl)pyrimidin-5-yl]-2,3,4,9-tetrahydro-1H-pyrido[3,4-b]indole]",16.2
11,"Cc1ccc(C2c3[nH]c4cc(F)c(Cl)cc4c3CCN2c2nc(Cl)cc(N(C)C)n2)cc1 (stereo not drawn) [Cpd 17, 6-chloro-2-[6-chloro-7-fluoro-1-(4-methylphenyl)-1,3,4,9-tetrahydro-2H-pyrido[3,4-b]indol-2-yl]-N,N-dimethylpyrimidin-4-amine]",18.4
12,"Cc1ccc(C2c3[nH]c4ccc(Cl)c(F)c4c3CCN2c2nc(C)c(F)c(C)n2)cc1 (stereo not drawn) [Compound 116, 6-chloro-5-fluoro-2-(5-fluoro-4,6-dimethylpyrimidin-2-yl)-1-(4-methylphenyl)-2,3,4,9-tetrahydro-1H-pyrido[3,4-b]indole]",6.7
13,"Fc1ccc(C2c3[nH]c4ccc(Cl)cc4c3CCN2c2ncc(F)cn2)cc1 (stereo not drawn) [Compound 3, 6-chloro-1-(4-fluorophenyl)-2-(5-fluoropyrimidin-2-yl)-2,3,4,9-tetrahydro-1H-pyrido[3,4-b]indole]",29.6
14,"Cc1ccc([C@H]2c3[nH]c4ccc(Cl)cc4c3CCN2c2ncc(F)cn2)cc1 [Compound 393, (1S)-6-chloro-2-(5-fluoropyrimidin-2-yl)-1-(4-methylphenyl)-2,3,4,9-tetrahydro-1H-pyrido[3,4-b]indole]",12.7
15,"CN(C)c1ncc(C2c3[nH]c4cc(F)c(Cl)cc4c3CCN2c2ncc(Cl)cn2)cn1 (stereo not drawn) [Compound 102, 5-[6-chloro-2-(5-chloropyrimidin-2-yl)-7-fluoro-2,3,4,9-tetrahydro-1H-pyrido[3,4-b]indol-1-yl]-N,N-dimethylpyrimidin-2-amine]",19.6
16,"Fc1ccc(C2c3[nH]c4ccc(Cl)cc4c3CCN2c2nccc(Cl)n2)cc1 (stereo not drawn) [Compound 13, 6-chloro-2-(4-chloropyrimidin-2-yl)-1-(4-fluorophenyl)-2,3,4,9-tetrahydro-1H-pyrido[3,4-b]indole]",12.4

# More lines, in order of falling IC50, values ahead:
row,IC50 [nM],SMILES
1,5.2,"FC(F)(F)c1nc(N2CCOCC2)nc(N2CCc3c([nH]c4ccc(Cl)cc34)C2c2ccc(N3CCOCC3)nc2)n1 (stereo not drawn) [Compound 428, 6-chloro-1-[6-(morpholin-4-yl)pyridin-3-yl]-2-[4-(morpholin-4-yl)-6-(trifluoromethyl)-1,3,5-triazin-2-yl]-2,3,4,9-tetrahydro-1H-pyrido[3,4-b]indole]"
2,4.7,"Cc1ccc([C@H]2c3[nH]c4ccc(Cl)cc4c3CCN2c2nc(C)nc(C)n2)cc1 [Compound 402, (1S)-6-chloro-2-(4,6-dimethyl-1,3,5-triazin-2-yl)-1-(4-methylphenyl)-2,3,4,9-tetrahydro-1H-pyrido[3,4-b]indole]"
3,3.2,"Cc1ccc(C2c3[nH]c4ccc(F)cc4c3CCN2c2nc(C(F)(F)F)nc(C(F)(F)F)n2)c(F)c1F (stereo not drawn) [Compound 492, 2-[4,6-bis(trifluoromethyl)-1,3,5-triazin-2-yl]-1-(2,3-difluoro-4-methylphenyl)-6-fluoro-2,3,4,9-tetrahydro-1H-pyrido[3,4-b]indole]"
4,3,"Cc1nc(C)nc(N2CCc3c([nH]c4ccc(Cl)cc34)C2c2ccc(N3CCOCC3)nc2F)n1 (stereo not drawn) [Compound 459, 6-chloro-2-(4,6-dimethyl-1,3,5-triazin-2-yl)-1-[2-fluoro-6-(morpholin-4-yl)pyridin-3-yl]-2,3,4,9-tetrahydro-1H-pyrido[3,4-b]indole]"
5,2.8,"Cc1nc(N2CCc3c([nH]c4ccc(Cl)c(F)c34)C2c2ccc(CCCCO)cc2)ncc1F (stereo not drawn) [Compound 246, 4-{4-[6-chloro-5-fluoro-2-(5-fluoro-4-methylpyrimidin-2-yl)-2,3,4,9-tetrahydro-1H-pyrido[3,4-b]indol-1-yl]phenyl}butan-1-ol]"
6,2.2,"Cc1nc(N2CCc3c([nH]c4cc(F)c(Cl)cc34)C2c2ccc(CCCCO)cc2)nc(C)c1F (stereo not drawn) [Compound 249, 4-{4-[6-chloro-7-fluoro-2-(5-fluoro-4,6-dimethylpyrimidin-2-yl)-2,3,4,9-tetrahydro-1H-pyrido[3,4-b]indol-1-yl]phenyl}butan-1-ol]"
7,2.2,"CN(C)c1ccc(C2c3[nH]c4cc(F)c(Cl)cc4c3CCN2c2nccc(C(F)(F)F)n2)c(F)n1 (stereo not drawn) [Compound 208, 5-{6-chloro-7-fluoro-2-[4-(trifluoromethyl)pyrimidin-2-yl]-2,3,4,9-tetrahydro-1H-pyrido[3,4-b]indol-1-yl}-6-fluoro-N,N-dimethylpyridin-2-amine]"
8,1.8,"N#Cc1ccnc(N2CCc3c([nH]c4ccc(Cl)c(F)c34)C2c2ccc(/C=C/CCO)cc2)n1 (stereo not drawn) [Compound 236, 2-(6-chloro-5-fluoro-1-{4-[(1E)-4-hydroxybut-1-en-1-yl]phenyl}-1,3,4,9-tetrahydro-2H-pyrido[3,4-b]indol-2-yl)pyrimidine-4-carbonitrile]"
9,1.6,"FC(F)(F)c1cnnc(N2CCc3c([nH]c4ccc(Cl)cc34)C2c2ccc(N3CCOCC3)nc2)n1 (stereo not drawn) [Compound 429, 6-chloro-1-[6-(morpholin-4-yl)pyridin-3-yl]-2-[5-(trifluoromethyl)-1,2,4-triazin-3-yl]-2,3,4,9-tetrahydro-1H-pyrido[3,4-b]indole]"
10,1.3,"Fc1c(Cl)ccc2[nH]c3c(c12)CCN(c1nccc(C(F)(F)F)n1)[C@H]3c1ccc(Cl)cc1 [Compound 182, (1S)-6-chloro-1-(4-chlorophenyl)-5-fluoro-2-[4-(trifluoromethyl)pyrimidin-2-yl]-2,3,4,9-tetrahydro-1H-pyrido[3,4-b]indole]"
11,1.1,"Cc1ccc([C@H]2c3[nH]c4ccc(Cl)cc4c3CCN2c2ncc(Br)cn2)c(F)c1F [Compound 463, (1S)-2-(5-bromopyrimidin-2-yl)-6-chloro-1-(2,3-difluoro-4-methylphenyl)-2,3,4,9-tetrahydro-1H-pyrido[3,4-b]indole]"
12,0.8,"Cc1ccnc(N2CCc3c([nH]c4ccc(Cl)cc34)[C@@H]2c2ccc(C)c(F)c2F)n1 [Compound 234, (1S)-6-chloro-1-(2,3-difluoro-4-methylphenyl)-2-(4-methylpyrimidin-2-yl)-2,3,4,9-tetrahydro-1H-pyrido[3,4-b]indole]"
13,0.8,"CN1CCN(c2ncc([C@H]3c4[nH]c5ccc(Cl)cc5c4CCN3c3nc(C(F)F)nc(C(F)(F)F)n3)cn2)CC1 [Compound 508, (1S)-6-chloro-2-[4-(difluoromethyl)-6-(trifluoromethyl)-1,3,5-triazin-2-yl]-1-[2-(4-methylpiperazin-1-yl)pyrimidin-5-yl]-2,3,4,9-tetrahydro-1H-pyrido[3,4-b]indole]"
14,0.3,"Cc1ccc([C@H]2c3[nH]c4ccc(-n5nccn5)cc4c3CCN2c2nc(C(F)(F)F)cc(C(F)(F)F)n2)c(F)c1F [Compound 519, (1S)-2-[4,6-bis(trifluoromethyl)pyrimidin-2-yl]-1-(2,3-difluoro-4-methylphenyl)-6-(2H-1,2,3-triazol-2-yl)-2,3,4,9-tetrahydro-1H-pyrido[3,4-b]indole]"
